Values after ≈ are worked out from the molar mass of the structure shown. Read-outs that look alike come from different tables or passages of the source.
Experiments:
[1] = system: Staphylococcus aureus cultures; assay: Agar dilution MIC, Example 13 compound vs methicillin resistant Staphylococcus aureus; format: cell-based
Excerpt: The table which follows gives the minimum inhibitory concentration (MIC) in micrograms of compound per milliliter of culture (μg/ml), in comparison with similar MIC values for the known antibiotics methicillin, cephalothin and cephaloridine against the same strains of bacteria.

[2] = system: methicillin-resistant Staphylococcus aureus; assay: Gradient plate test (MIC) against methicillin-resistant Staphylococcus aureus; format: cell-based; conditions: Staphylococcus aureus, read-out: minimum inhibitory concentration (MIC)
Protocol: The method used is essentially that described by Bryson and Szybalski in 1952 (Science 116:45-46). The inoculum treatment method used for penicillin resistant Staphylococci was reported by Godzeski et al in Antimicrobial Agents and Chemotherapy, May, 1969, pp. 547-554.
A standard Falcon square plastic petri dish is used. A layer of agar (10 ml.) is poured into one of the square dishes, the dish tipped 5 mm. off the horizontal, and the agar layer allowed to harden in this position. This bottom layer of agar contains the antibiotic, the serum, and/or other material to be tested. The medium is Difco Penassay Agar containing 2 percent agar. We routinely used 4 ml. of human or horse serum for "serum-inactivation" testing. […] Therefore, serum is routinely added only to the bottom layer.
After the bottom, slanted layer of agar medium has hardened, the plate is placed flat and another 10 ml. of medium added and allowed to harden.
The inoculum of resistant Staphylococci, as described, is prepared by diluting the water suspension 1/50 in 0.25 percent agar in sterile water or saline. For Gram negative organisms, an overnight broth culture is diluted 1/50 in the 0.25 percent agar-water. This dilution is thoroughly shaken to evenly suspend the bacteria. To streak the plate, we use a 1 ml. pipet containing an aliquot of the final […] agar dilution. After a little practice, a smooth even stroke of inoculum can be laid down very rapidly. The trick is in the smoothness of the streak--it must be accomplished uniformly and quickly.
After 24 hours incubation at 35°-37° C. the plates are read by simply measuring the length of bacterial growth as a percentage of the entire streak distance which is then converted to the percent of antibiotic concentration in the plate.
Average values of duplicate measurements are calculated and the M.I.C.'s reported are average of 2 streaks on the plate and from 2 to 3 duplicate plates. Eight streaks can be easily placed on each plate. If sharp end points are not obtained, the middle concentration between the beginning of inhibition of the streak to the end of growth is measured. The concentration of the antibiotic under examination is varied from plate to plate in a series as follows: […]
This method of screening penicillins and cephalosporins is quite satisfactory. Control plates containing penicillin and staphcillin or prostaphlin, or other control antibiotic, are used daily for the resistant staphylococcal activity screen. The gradient plate method has shown differences between antibiotics that were not apparent by any other methods of screening. […] We believe that the gradient plate screen is more sensitive to small differences between related antibiotics than other methods and pictures of the plates can provide a permanent record. The method also lends itself readily to modification of specific purposes--e.g., cross gradients.
The compounds listed below are examples of compounds useful in the method of this invention. After the compound name there is given in parentheses, where tested, the minimum inhibitory concentrations (MIC) in micrograms per milliliter (μg/ml) for the compound in the above described gradient plate procedure test against methicillin-resistant Staphylococcus aureus, (in the absence of blood serum/in the presence of 20 percent blood serum).
and pharmaceutically acceptable salts thereof. The abbreviation "s.z." means skip zones.

CC(=O)OCC1=C(C(=O)O)N2C(=O)[C@@H](NC(=O)Cc3cccs3)[C@H]2SC1 [Cephalothin, cephalothin, reference compound] was tested, and the MIC ([1]; culture 3055 (control), Trypticase Soy Agar with 4.5% NaCl added (5% NaCl)) was 0.25 µg/mL (≈ 0.631 µM), the MIC ([1]; culture 3055 (control), Trypticase Soy Agar, 0.5% NaCl) was 0.13 µg/mL (≈ 0.328 µM) and the MIC ([1]; culture 3130, Trypticase Soy Agar with 4.5% NaCl added (5% NaCl)) was 1 µg/mL (≈ 2.52 µM). It also gave an MIC ([1]; culture 3130, Trypticase Soy Agar, 0.5% NaCl) of 0.5 µg/mL (≈ 1.26 µM), an MIC ([1]; culture 3131, Trypticase Soy Agar with 4.5% NaCl added (5% NaCl)) of 1 µg/mL (≈ 2.52 µM) and an MIC ([1]; culture 3131, Trypticase Soy Agar, 0.5% NaCl) of 0.5 µg/mL (≈ 1.26 µM). The MIC ([1]; culture 3132, Trypticase Soy Agar with 4.5% NaCl added (5% NaCl)) was 0.5 µg/mL (≈ 1.26 µM), the MIC ([1]; culture 3132, Trypticase Soy Agar, 0.5% NaCl) was 0.5 µg/mL (≈ 1.26 µM) and the MIC ([1]; culture 3133, Trypticase Soy Agar with 4.5% NaCl added (5% NaCl)) was 0.5 µg/mL (≈ 1.26 µM). It also gave an MIC ([1]; culture 3133, Trypticase Soy Agar, 0.5% NaCl) of 0.5 µg/mL (≈ 1.26 µM), an MIC ([1]; culture 3134, Trypticase Soy Agar with 4.5% NaCl added (5% NaCl)) of 1 µg/mL (≈ 2.52 µM) and an MIC ([1]; culture 3134, Trypticase Soy Agar, 0.5% NaCl) of 2 µg/mL (≈ 5.04 µM). For the same compound, the MIC ([1]; culture 3135, Trypticase Soy Agar with 4.5% NaCl added (5% NaCl)) was 1 µg/mL (≈ 2.52 µM), the MIC ([1]; culture 3135, Trypticase Soy Agar, 0.5% NaCl) was 1 µg/mL (≈ 2.52 µM) and the MIC ([1]; culture 3136, Trypticase Soy Agar with 4.5% NaCl added (5% NaCl)) was 1 µg/mL (≈ 2.52 µM). It also gave an MIC ([1]; culture 3136, Trypticase Soy Agar, 0.5% NaCl) of 0.5 µg/mL (≈ 1.26 µM), an MIC ([1]; culture 3137, Trypticase Soy Agar with 4.5% NaCl added (5% NaCl)) of 1 µg/mL (≈ 2.52 µM) and an MIC ([1]; culture 3137, Trypticase Soy Agar, 0.5% NaCl) of 2 µg/mL (≈ 5.04 µM). For the same compound, the MIC ([1]; culture 3138, Trypticase Soy Agar with 4.5% NaCl added (5% NaCl)) was 2 µg/mL (≈ 5.04 µM), the MIC ([1]; culture 3138, Trypticase Soy Agar, 0.5% NaCl) was 1 µg/mL (≈ 2.52 µM) and the MIC ([1]; culture 3139, Trypticase Soy Agar with 4.5% NaCl added (5% NaCl)) was 0.25 µg/mL (≈ 0.631 µM). It also gave an MIC ([1]; culture 3139, Trypticase Soy Agar, 0.5% NaCl) of 0.5 µg/mL (≈ 1.26 µM), an MIC ([1]; culture H232 (control), Trypticase Soy Agar with 4.5% NaCl added (5% NaCl)) of 0.25 µg/mL (≈ 0.631 µM) and an MIC ([1]; culture H232 (control), Trypticase Soy Agar, 0.5% NaCl) of 2.5 µg/mL (≈ 6.31 µM). It also gave an MIC ([1]; culture Havarmak 1136501, Trypticase Soy Agar with 4.5% NaCl added (5% NaCl)) of 1 µg/mL (≈ 2.52 µM), an MIC ([1]; culture Havarmak 1136501, Trypticase Soy Agar, 0.5% NaCl) of 1 µg/mL (≈ 2.52 µM) and an MIC ([1]; culture S 61, Trypticase Soy Agar with 4.5% NaCl added (5% NaCl)) of 1 µg/mL (≈ 2.52 µM). The MIC ([1]; culture S 61, Trypticase Soy Agar, 0.5% NaCl) was 1 µg/mL (≈ 2.52 µM), the MIC ([1]; culture Seattle 966, Trypticase Soy Agar with 4.5% NaCl added (5% NaCl)) was 0.25 µg/mL (≈ 0.631 µM) and the MIC ([1]; culture Seattle 966, Trypticase Soy Agar, 0.5% NaCl) was 0.5 µg/mL (≈ 1.26 µM).
COc1cccc(OC)c1C(=O)N[C@@H]1C(=O)N2[C@@H]1SC(C)(C)[C@@H]2C(=O)O [Methicillin, methicillin] was tested, and the MIC ([1]; culture 3055 (control), Trypticase Soy Agar with 4.5% NaCl added (5% NaCl), read-out: MIC) was 1 µg/mL (≈ 2.63 µM), the MIC ([1]; culture 3055 (control), Trypticase Soy Agar, 0.5% NaCl, read-out: MIC) was 1 µg/mL (≈ 2.63 µM) and the MIC ([1]; culture 3130, Trypticase Soy Agar with 4.5% NaCl added (5% NaCl), read-out: MIC) was 16 µg/mL (≈ 42.1 µM). It also gave an MIC ([1]; culture 3130, Trypticase Soy Agar, 0.5% NaCl, read-out: MIC) of 4 µg/mL (≈ 10.5 µM), an MIC ([1]; culture 3131, Trypticase Soy Agar with 4.5% NaCl added (5% NaCl), read-out: MIC) of 32 µg/mL (≈ 84.1 µM) and an MIC ([1]; culture 3131, Trypticase Soy Agar, 0.5% NaCl, read-out: MIC) of 4 µg/mL (≈ 10.5 µM). The MIC ([1]; culture 3132, Trypticase Soy Agar with 4.5% NaCl added (5% NaCl), read-out: MIC) was 8 µg/mL (≈ 21 µM), the MIC ([1]; culture 3132, Trypticase Soy Agar, 0.5% NaCl, read-out: MIC) was 4 µg/mL (≈ 10.5 µM) and the MIC ([1]; culture 3133, Trypticase Soy Agar with 4.5% NaCl added (5% NaCl), read-out: MIC) was 2 µg/mL (≈ 5.26 µM). For the same compound, the MIC ([1]; culture 3133, Trypticase Soy Agar, 0.5% NaCl, read-out: MIC) was 2 µg/mL (≈ 5.26 µM), the MIC ([1]; culture 3134, Trypticase Soy Agar with 4.5% NaCl added (5% NaCl), read-out: MIC) was 32 µg/mL (≈ 84.1 µM) and the MIC ([1]; culture 3134, Trypticase Soy Agar, 0.5% NaCl, read-out: MIC) was 8 µg/mL (≈ 21 µM). For the same compound, the MIC ([1]; culture 3135, Trypticase Soy Agar with 4.5% NaCl added (5% NaCl), read-out: MIC) was 32 µg/mL (≈ 84.1 µM), the MIC ([1]; culture 3135, Trypticase Soy Agar, 0.5% NaCl, read-out: MIC) was 4 µg/mL (≈ 10.5 µM) and the MIC ([1]; culture 3136, Trypticase Soy Agar with 4.5% NaCl added (5% NaCl), read-out: MIC) was 64 µg/mL (≈ 168 µM). The MIC ([1]; culture 3136, Trypticase Soy Agar, 0.5% NaCl, read-out: MIC) was 4 µg/mL (≈ 10.5 µM), the MIC ([1]; culture 3137, Trypticase Soy Agar with 4.5% NaCl added (5% NaCl), read-out: MIC) was 64 µg/mL (≈ 168 µM) and the MIC ([1]; culture 3137, Trypticase Soy Agar, 0.5% NaCl, read-out: MIC) was 8 µg/mL (≈ 21 µM). The MIC ([1]; culture 3138, Trypticase Soy Agar with 4.5% NaCl added (5% NaCl), read-out: MIC) was 32 µg/mL (≈ 84.1 µM), the MIC ([1]; culture 3138, Trypticase Soy Agar, 0.5% NaCl, read-out: MIC) was 8 µg/mL (≈ 21 µM) and the MIC ([1]; culture 3139, Trypticase Soy Agar with 4.5% NaCl added (5% NaCl), read-out: MIC) was 1 µg/mL (≈ 2.63 µM). The MIC ([1]; culture 3139, Trypticase Soy Agar, 0.5% NaCl, read-out: MIC) was 2 µg/mL (≈ 5.26 µM), the MIC ([1]; culture H232 (control), Trypticase Soy Agar with 4.5% NaCl added (5% NaCl), read-out: MIC) was 1 µg/mL (≈ 2.63 µM) and the MIC ([1]; culture H232 (control), Trypticase Soy Agar, 0.5% NaCl, read-out: MIC) was 2 µg/mL (≈ 5.26 µM). For the same compound, the MIC ([1]; culture Havarmak 1136501, Trypticase Soy Agar with 4.5% NaCl added (5% NaCl), read-out: MIC) was 64 µg/mL (≈ 168 µM), the MIC ([1]; culture Havarmak 1136501, Trypticase Soy Agar, 0.5% NaCl, read-out: MIC) was 8 µg/mL (≈ 21 µM) and the MIC ([1]; culture S 61, Trypticase Soy Agar with 4.5% NaCl added (5% NaCl), read-out: MIC) was 32 µg/mL (≈ 84.1 µM). For the same compound, the MIC ([1]; culture S 61, Trypticase Soy Agar, 0.5% NaCl, read-out: MIC) was 4 µg/mL (≈ 10.5 µM), the MIC ([1]; culture Seattle 966, Trypticase Soy Agar with 4.5% NaCl added (5% NaCl), read-out: MIC) was 16 µg/mL (≈ 42.1 µM) and the MIC ([1]; culture Seattle 966, Trypticase Soy Agar, 0.5% NaCl, read-out: MIC) was 4 µg/mL (≈ 10.5 µM).
CC(=O)OCC1=C(C(=O)O)N2C(=O)C(NC(=O)CSc3cc(Cl)ccc3Cl)C2SC1 (centres unmarked) [Example 2, 7-(2,5-Dichlorophenylthioacetamido)-cephalosporanic acid] gave an MIC ([2]; in the absence of blood serum) of 0.8 µg/mL (≈ 1.63 µM) and an MIC ([2]; in the presence of 20 percent blood serum) of 1 µg/mL.
